19 molecules from patent publication US10738056B2 (Aduro BioTech, Inc., priority 2017, dated 2020) can be followed below.

In experiment [1] the test system is cGAS/STING pathway in THP1 cells. The experiment in a line: THP1 cell-based cGAS/STING pathway activity assay (IRF-3-linked luciferase reporter). Particulars: Homo sapiens, THP-1. Put shortly: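 THP1 cells carrying an IRF-3-driven luciferase reporter were read across a range of compound concentrations, and IC50 values were derived from these concentration responses; the assay upper limit was 100 μM.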

Experiment [2] concerns the target Human cGAS amino acids 155-522 (Homo sapiens (Human), UniProt Q8N884). Nature of the experiment: cGAS biochemical activity assay (ATP remaining, Kinase-Glo Max luminescence). To be noted: human cGAS 155-522, ATP remaining (Kinase-Glo Max); read-out: cGAS IC50.

SMILES strings stand for the structures.

Chain of Human cGAS amino acids 155-522 (Q8N884 157-522): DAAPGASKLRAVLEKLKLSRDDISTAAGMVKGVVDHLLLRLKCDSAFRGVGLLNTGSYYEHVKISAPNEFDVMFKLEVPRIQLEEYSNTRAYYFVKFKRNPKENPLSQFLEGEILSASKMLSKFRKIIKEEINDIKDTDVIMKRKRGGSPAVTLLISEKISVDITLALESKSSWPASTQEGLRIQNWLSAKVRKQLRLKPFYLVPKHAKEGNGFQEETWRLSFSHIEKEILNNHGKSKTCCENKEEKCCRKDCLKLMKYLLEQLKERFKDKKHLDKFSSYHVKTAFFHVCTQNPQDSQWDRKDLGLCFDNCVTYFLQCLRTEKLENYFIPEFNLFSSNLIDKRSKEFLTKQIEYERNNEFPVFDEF

By IC50 is commonly meant the concentration at which inhibition is half-maximal. Regarding `Cc1[nH]c2c(-c3ccccc3)c(C(F)(F)F)nn2c(=O)c1-c1nc2c(C)cccc2o1` [Compound C1060, 5-methyl-6-(4-methylbenzo[d]oxazol-2-yl)-3-phenyl-2-(trifluoromethyl)pyrazolo[1,5-a]pyrimidin-7(4H)-one], the IC50 in experiment [1] and in experiment [2] was under 20 µM throughout.
Turning to `COC(C)(C)c1nnc(-c2c(C)[nH]c3c(-c4ccccc4)c(C(F)(F)F)nn3c2=O)o1` [Compound D1048, 6-(5-(2-methoxypropan-2-yl)-1,3,4-oxadiazol-2-yl)-5-methyl-3-phenyl-2-(trifluoromethyl)pyrazolo[1,5-a]pyrimidin-7(4H)-one], the half-maximal inhibitory concentration (IC50) was over 100 µM in experiment [1] and 20 to 250 µM in experiment [2].
As to `CNc1cccc2oc(-c3c(C)[nH]c4c(-c5ccccc5)c(C#N)nn4c3=O)nc12` [Compound C1274, 5-methyl-6-(4-(methylamino)benzo[d]oxazol-2-yl)-7-oxo-3-phenyl-4,7-dihydropyrazolo[1,5-a]pyrimidine-2-carbonitrile], the IC50 is over 100 µM in experiment [1] and under 20 µM in experiment [2].
As for `Cc1[nH]c2c(-c3ccccc3)c(C(F)(F)F)nn2c(=O)c1C(=O)Nc1cc(C)n(C)n1` [Compound A1079, N-(1,5-dimethyl-1H-pyrazol-3-yl)-5-methyl-7-oxo-3-phenyl-2-(trifluoromethyl)-4,7-dihydropyrazolo[1,5-a]pyrimidine-6-carboxamide], the IC50 in experiment [1] is over 100 µM; in experiment [2] it was under 20 µM.
With `COc1ccnc(NC(=O)c2c(C)[nH]c3c(-c4ccccc4)c(C(F)(F)F)nn3c2=O)c1` [Compound A1063, N-(4-methoxypyridin-2-yl)-5-methyl-7-oxo-3-phenyl-2-(trifluoromethyl)-4,7-dihydropyrazolo[1,5-a]pyrimidine-6-carboxamide], the IC50 in experiment [1] was 20 to 100 µM; in experiment [2], under 20 µM.
As for `COc1cccc2oc(-c3c(C)[nH]c4c(-c5ccccc5)c(C)nn4c3=O)nc12` [Compound C1042, 6-(4-methoxybenzo[d]oxazol-2-yl)-2,5-dimethyl-3-phenylpyrazolo[1,5-a]pyrimidin-7(4H)-one], the IC50 in experiment [1] and in experiment [2] was under 20 µM in each case.
As for `COc1ccc(NC(=O)c2c(C)[nH]c3c(-c4ccccc4)c(C(F)(F)F)nn3c2=O)cn1` [Compound A1088, N-(6-methoxypyridin-3-yl)-5-methyl-7-oxo-3-phenyl-2-(trifluoromethyl)-4,7-dihydropyrazolo[1,5-a]pyrimidine-6-carboxamide], the IC50 in experiment [1] is 20 to 100 µM; in experiment [2], 20 to 250 µM.
Turning to `COC1CCCCC1NC(=O)c1c(C)[nH]c2c(-c3ccccc3)c(C(F)(F)F)nn2c1=O` (single isomer, unassigned) [Compound A1089, N-(2-methoxycyclohexyl)-5-methyl-7-oxo-3-phenyl-2-(trifluoromethyl)-4,7-dihydropyrazolo[1,5-a]pyrimidine-6-carboxamide], the IC50 in experiment [1] is over 100 µM; in experiment [2] it was under 20 µM.
`Cc1[nH]c2c(-c3ccccc3)c(C(F)(F)F)nn2c(=O)c1C(=O)Nc1nc(C(C)C)co1` [Compound A1048, N-(4-isopropyloxazol-2-yl)-5-methyl-7-oxo-3-phenyl-2-(trifluoromethyl)-4,7-dihydropyrazolo[1,5-a]pyrimidine-6-carboxamide]: the values for the IC50 in experiment [1] and in experiment [2] were 20 to 100 µM and 20 to 250 µM, respectively.
For the molecule `Cc1[nH]c2c(-c3ccccc3)c(C(F)(F)F)nn2c(=O)c1-c1nnc(C2=NCCCN2)o1` [Compound D1072, 5-methyl-3-phenyl-6-(5-(1,4,5,6-tetrahydropyrimidin-2-yl)-1,3,4-oxadiazol-2-yl)-2-(trifluoromethyl)pyrazolo[1,5-a]pyrimidin-7(4H)-one], the figures for the IC50 in experiment [1] and in experiment [2] were over 100 µM and under 20 µM, respectively.
The corresponding values for `Cc1[nH]c2c(-c3ccccc3)c(C#N)nn2c(=O)c1-c1nc2cc(N)ccc2o1` [Compound C1181, 6-(5-aminobenzo[d]oxazol-2-yl)-5-methyl-7-oxo-3-phenyl-4,7-dihydropyrazolo[1,5-a]pyrimidine-2-carbonitrile] are over 100 µM and under 20 µM.
The like results for `Cc1[nH]c2c(-c3ccccc3)c(C(F)(F)F)nn2c(=O)c1-c1nnc(-c2cccc(O)n2)o1` [Compound D1086, 6-(5-(6-hydroxypyridin-2-yl)-1,3,4-oxadiazol-2-yl)-5-methyl-3-phenyl-2-(trifluoromethyl)pyrazolo[1,5-a]pyrimidin-7(4H)-one] were, in that order, over 100 µM and under 20 µM.
For `Cc1[nH]c2c(-c3ccccc3)c(C(F)(F)F)nn2c(=O)c1C(=O)Nc1cnn(C)c1` [Compound A1077, 5-methyl-N-(1-methyl-1H-pyrazol-4-yl)-7-oxo-3-phenyl-2-(trifluoromethyl)-4,7-dihydropyrazolo[1,5-a]pyrimidine-6-carboxamide], the IC50 in experiment [1] was over 100 µM; in experiment [2] it was under 20 µM.
`COc1nccc2oc(-c3c(C)[nH]c4c(-c5ccccc5)c(C(F)(F)F)nn4c3=O)nc12` [Compound C1037, 6-(4-methoxyoxazolo[4,5-c]pyridin-2-yl)-5-methyl-3-phenyl-2-(trifluoromethyl)pyrazolo[1,5-a]pyrimidin-7(4H)-one]: the half-inhibitory concentration (IC50) in experiment [1] and in experiment [2] was under 20 µM throughout.
Turning to `Cc1[nH]c2c(-c3ccccc3)c(C(F)(F)F)nn2c(=O)c1C(=O)Nc1cccc(S(C)(=O)=O)c1` [Compound A1084, 5-methyl-N-(3-(methylsulfonyl)phenyl)-7-oxo-3-phenyl-2-(trifluoromethyl)-4,7-dihydropyrazolo[1,5-a]pyrimidine-6-carboxamide], the IC50 in experiment [1] is 20 to 100 µM; in experiment [2], under 20 µM.
On to `Cc1[nH]c2c(-c3ccccc3)c(C(F)(F)F)nn2c(=O)c1C(=O)Nc1ccc(S(C)(=O)=O)nc1` [Compound A1113, 5-methyl-N-(6-(methylsulfonyl)pyridin-3-yl)-7-oxo-3-phenyl-2-(trifluoromethyl)-4,7-dihydropyrazolo[1,5-a]pyrimidine-6-carboxamide], for which the IC50 in experiment [1] is over 100 µM; in experiment [2] it was 20 to 250 µM.
Regarding `COC1CCCN(c2nnc(-c3c(C)[nH]c4c(-c5ccccc5)c(C(F)(F)F)nn4c3=O)o2)C1` (centres unmarked) [Compound D1027, 6-(5-(3-methoxypiperidin-1-yl)-1,3,4-oxadiazol-2-yl)-5-methyl-3-phenyl-2-(trifluoromethyl)pyrazolo[1,5-a]pyrimidin-7(4H)-one], the IC50 in experiment [1] is over 100 µM; in experiment [2] it was under 20 µM.
The like results for `COc1cccc2oc(-c3c(C)[nH]c4c(-c5ccccc5)c(C(F)F)nn4c3=O)nc12` [Compound C1050, 2-(difluoromethyl)-6-(4-methoxybenzo[d]oxazol-2-yl)-5-methyl-3-phenylpyrazolo[1,5-a]pyrimidin-7(4H)-one] were, in that order, under 20 µM and under 20 µM.
Take `COc1cc(C(N)=O)cc2oc(-c3c(C)[nH]c4c(-c5ccccc5)c(C(F)(F)F)nn4c3=O)nc12` [Compound C1149, 4-methoxy-2-(5-methyl-7-oxo-3-phenyl-2-(trifluoromethyl)-4,7-dihydropyrazolo[1,5-a]pyrimidin-6-yl)benzo[d]oxazole-6-carboxamide]: the IC50 in experiment [1] was 20 to 100 µM; in experiment [2], under 20 µM.
